US20210315882A1, “METHODS OF TREATING A PATIENT HAVING PARKINSON'S DISEASE” (Sunovion Pharmaceuticals Inc., priority 2019, published 2021)

Test system: patients with Parkinson's disease and “OFF” episodes
Assay: Post hoc analysis of Phase 3 study: motor responses to apomorphine sublingual film compared with levodopa
Type: in vivo, human
Source text: Patients described in Table 9 were enrolled in a study. At screening, patients attended morning in-office visits in the “OFF” state and received their usual morning dose of levodopa without adjunctive PD medications and were both self- and investigator-assessed for a FULL “ON” response (levodopa challenge; FIG. 9). An “OFF” state was accomplished by withholding levodopa and any other adjunctive PD medications after midnight the night before each morning in-office visit.

**Q.** Which results are given for `N[C@@H](Cc1ccc(O)c(O)c1)C(=O)O` [levodopa]?
**A.** Responder rate (≥30% decrease in MDS-UPDRS III score from predose) (15 minutes postdose): 18%; Responder rate (≥30% decrease in MDS-UPDRS III score from predose) (30 minutes postdose): 50%; time of mean peak response across the time points measured (MDS-UPDRS III score): 95 min; magnitude of observed peak response in MDS-UPDRS III score (mean±SE) (across the time points measured): −27.9±1.20; change in MDS-UPDRS III score from predose at 15 minutes postdose (mean±SE) (open-label, film at dose giving FULL “ON”, levodopa usual morning dose, n = 109): −6.0±0.72
